Laboratory results: article PMC6949951, “α-Glucosidase Inhibition and Molecular Docking Studies of Natural Brominated Metabolites from Marine Macro Brown Alga Dictyopteris hoytii” (Marine Drugs, 2019)
Like-named read-outs stand apart in the source and are kept apart here.

Target: α-Glucosidase (E.C.3.2.1.20) enzyme (Saccharomyces cerevisiae) (Saccharomyces cerevisiae, UniProt P53341)
Assay: biochemical
Type: biochemical
Description: α-Glucosidase (E.C.3.2.1.20) enzyme (Saccharomyces cerevisiae) inhibition activity was carried out by using previously described method. The enzyme (0.2 μ/mL) solution in phosphate buffered saline (PBS) (0.1 M, pH 6.8) with different concentrations of tested compounds (1, 0.5, 0.25, 0.125, 0.0625 and 0.0312 mM) at 37 °C were incubated for 15 min. After incubation, 0.7 mM p-nitrophenyl-α-D-glucopyranoside (a chromogenic substrate) was added and the change in absorbance was recorded at 400 nm for 30 min by microplate spectrophotometer (xMark™, BIO-RAD, California, LA, United States) per production of p-nitrophenyl. Al the isolated compounds were dissolve in DMSO (7.5% final) along with control. […] The IC50 values were calculated by using different concentrations of tested compounds. The results were processed by MS-Excel and Ez-fit software programs. The % inhibition was calculated by using the following formula:% Inhibition = 100 −(OD test well/OD control) × 100.

[1] = α-Glucosidase inhibitory activity IC50, tested up to 1.0 mM, PBS pH 6.8, 37 °C, NA = not active
[2] = IC50 (Table 2, repeated beside docking results), S. cerevisiae α-glucosidase
[3] = S. cerevisiae α-glucosidase, read-out: IC50 (Table 2, repeated beside docking results)
[4] = tested up to 1.0 mM, PBS pH 6.8, 37 °C, NA = not active, read-out: α-Glucosidase inhibitory activity IC50

Chain of α-Glucosidase (E.C.3.2.1.20) enzyme (Saccharomyces cerevisiae) (P53341 whole entry): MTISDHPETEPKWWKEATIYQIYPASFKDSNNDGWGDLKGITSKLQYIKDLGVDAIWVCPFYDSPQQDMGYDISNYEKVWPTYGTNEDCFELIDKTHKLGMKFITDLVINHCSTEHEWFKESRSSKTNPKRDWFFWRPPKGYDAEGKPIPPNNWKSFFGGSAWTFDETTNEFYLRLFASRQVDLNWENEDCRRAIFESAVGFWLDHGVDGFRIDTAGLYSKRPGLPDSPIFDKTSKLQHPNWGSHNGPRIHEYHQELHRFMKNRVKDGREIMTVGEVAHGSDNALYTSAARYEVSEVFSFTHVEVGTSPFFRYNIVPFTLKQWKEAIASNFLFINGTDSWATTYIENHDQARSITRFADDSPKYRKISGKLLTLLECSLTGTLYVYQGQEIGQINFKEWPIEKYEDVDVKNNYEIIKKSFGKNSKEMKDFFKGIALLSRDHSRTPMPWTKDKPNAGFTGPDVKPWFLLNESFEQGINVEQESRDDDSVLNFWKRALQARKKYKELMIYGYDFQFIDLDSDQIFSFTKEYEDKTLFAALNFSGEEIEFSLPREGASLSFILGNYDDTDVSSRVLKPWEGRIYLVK

Row | Molecule | IC50 [1] [µM] | IC50 [4] [µM] | other results
1 | CCOC(=O)c1ccc(C(=O)OCC)c(Br)c1 [Compound 2, Diethyl 2-bromobenzene 1,4-dioate] | ~234 |  | IC50: 234 µM
2 | C/C=C(\CC[C@@H](C)[C@H]1CC[C@H]2[C@@H]3CC=C4C[C@@H](O)CC[C@]4(C)[C@H]3CC[C@]12C)C(C)C [Compound 3, Fucosterol] | 289 ± 4.91 |  | IC50 [2]: 289 µM
3 | CCCCCCCCCCCCCCCC(=O)OC [Compound 4, n-Hexadecanoic acid, methyl ester] |  |  | α-glucosidase inhibition in words (in vitro): inactive
4 | CCCCCCCCCCCCCCCCCCCCCCCCCC(=O)O [Compound 6, Cerotic acid] |  | 659.8 ± 2.15 | IC50 [3]: 660 µM
5 | CCCCCCCCCCCCCCCCCCC=CCCCCCCCC(=O)O [Compound 7, n-Octacos-9-enoic acid] |  | 30.5 ± 0.41 | 
6 | CCCCCCCCC=CCCCCCCCCCC(=O)O [Compound 8, 11-Eicosenoic acid] | 480 |  | IC50 [2]: 480 µM
7 | Ethyl methyl 2-bromobenzene 1,4-dioate [Compound 1] |  | 522 ± 0.51 | IC50 [3]: 522 µM
